“And” between values parts separate entries of the source, which are not always exact repeats. Identical values can stand only once. Toxic doses and inconclusive results are not listed.
Tested on: BDF1 mice, P388 leukemia ip, median survival T/C
Assay: NCI In Vivo Anticancer Drug Screen. Data for tumor model P388 Leukemia (intraperitoneal) in B6D2F1 (BDF1) mice
Conditions: endpoint: median survival time, higher = longer survival
Summary of the method: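 Transplantable tumour in mice; compound vs vehicle dosing; survival scored; ratio of treated to control reported.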

[1] = dose: 16.5 mg/kg/injection, schedule: Q04DX003 (ip), vehicle: saline
[2] = dose: 25.0 mg/kg/injection, schedule: Q04DX003 (ip), vehicle: saline
[3] = dose: 100.0 mg/kg/injection, schedule: Q01DX009 (ip), vehicle: saline with Tween-80
[4] = dose: 100.0 mg/kg/injection, schedule: Q04DX003 (ip), vehicle: saline with Tween-80
[5] = dose: 200.0 mg/kg/injection, schedule: Q01DX009 (ip), vehicle: saline with Tween-80
[6] = dose: 200.0 mg/kg/injection, schedule: Q04DX003 (ip), vehicle: saline with Tween-80
[7] = dose: 400.0 mg/kg/injection, schedule: Q01DX009 (ip), vehicle: saline with Tween-80
[8] = dose: 400.0 mg/kg/injection, schedule: Q04DX003 (ip), vehicle: saline with Tween-80
[9] = dose: 100.0 mg/kg/injection, schedule: Q01DX009 (ip), vehicle: Klucel (hydroxypropylcellulose) (HPC)
[10] = dose: 50.0 mg/kg/injection, schedule: Q04DX003 (ip), vehicle: saline with Tween-80
[11] = dose: 12.5 mg/kg/injection, schedule: Q01DX009 (ip), vehicle: saline with Tween-80
[12] = dose: 25.0 mg/kg/injection, schedule: Q01DX009 (ip), vehicle: saline with Tween-80
[13] = dose: 50.0 mg/kg/injection, schedule: Q01DX009 (ip), vehicle: saline with Tween-80

O=NN1CCNC1=O
T/C (dose: 7.2 mg/kg/injection, schedule: Q04DX003 (ip), vehicle: saline): 172 % of control | T/C (dose: 10.0 mg/kg/injection, schedule: Q04DX003 (ip), vehicle: saline): 113 % of control | T/C [1]: 209 % of control | T/C [2]: 86 % of control | T/C (dose: 37.5 mg/kg/injection, schedule: Q04DX003 (ip), vehicle: saline): 90 % of control

Cc1ccc(N2C(=O)CC(Sc3ccccc3N)C2=O)cc1Cl (stereo not drawn)
T/C [3]: 110 % of control | T/C [4]: 95 % of control | T/C [5]: 90 % of control | T/C [6]: 109 % of control | T/C [7]: 105 % of control | T/C [8]: 109 % of control

Cc1noc(-c2ccc([N+](=O)[O-])o2)n1
T/C (dose: 50.0 mg/kg/injection, schedule: Q01DX009 (ip), vehicle: Klucel (hydroxypropylcellulose) (HPC)): 93 % of control | T/C [9]: 101 % of control

COc1ccc(C2=CC(=O)C(c3ccc(OC)cc3)=CC2=O)cc1
T/C (dose: 5.0 mg/kg/injection, schedule: Q01DX009 (ip), vehicle: gum acacia): 87 % of control | T/C (dose: 20.0 mg/kg/injection, schedule: Q01DX009 (ip), vehicle: gum acacia): 91 % of control | T/C (dose: 20.0 mg/kg/injection, schedule: Q04DX003 (ip), vehicle: gum acacia): 100 % of control | T/C (dose: 40.0 mg/kg/injection, schedule: Q01DX009 (ip), vehicle: gum acacia): 95 % of control | T/C (dose: 40.0 mg/kg/injection, schedule: Q04DX003 (ip), vehicle: gum acacia): 90 % of control | T/C (dose: 80.0 mg/kg/injection, schedule: Q01DX009 (ip), vehicle: gum acacia): 91 % of control | T/C (dose: 80.0 mg/kg/injection, schedule: Q04DX003 (ip), vehicle: gum acacia): 95 % of control

COC(=O)c1c(O)cc(OC)cc1OC
T/C [9]: 111 % of control | T/C (dose: 100.0 mg/kg/injection, schedule: Q04DX003 (ip), vehicle: Klucel (hydroxypropylcellulose) (HPC)): 100 % of control | T/C (dose: 200.0 mg/kg/injection, schedule: Q01DX009 (ip), vehicle: Klucel (hydroxypropylcellulose) (HPC)): 100 % of control | T/C (dose: 200.0 mg/kg/injection, schedule: Q04DX003 (ip), vehicle: Klucel (hydroxypropylcellulose) (HPC)): 95 % of control | T/C (dose: 400.0 mg/kg/injection, schedule: Q01DX009 (ip), vehicle: Klucel (hydroxypropylcellulose) (HPC)): 100 % of control | T/C (dose: 400.0 mg/kg/injection, schedule: Q04DX003 (ip), vehicle: Klucel (hydroxypropylcellulose) (HPC)): 95 % of control

CN(C)c1nc(N(C)C)nc(N(C)C)n1
T/C (dose: 18.8 mg/kg/injection, schedule: Q01DX010 (ip), vehicle: saline): 100 % of control | T/C (dose: 20.0 mg/kg/injection, schedule: Q01DX009 (ip), vehicle: Klucel (hydroxypropylcellulose) (HPC)): 95 % of control | T/C (dose: 20.0 mg/kg/injection, schedule: Q01DX009 (ip), vehicle: saline with Tween-80): 104 % of control | T/C (dose: 25.0 mg/kg/injection, schedule: Q01DX001 (ip), vehicle: Klucel (hydroxypropylcellulose) (HPC)): 100 % of control | T/C (dose: 25.0 mg/kg/injection, schedule: Q04DX002 (ip), vehicle: Klucel (hydroxypropylcellulose) (HPC)): 101 % of control and 107 % of control | T/C (dose: 25.0 mg/kg/injection, schedule: Q04DX003 (ip), vehicle: Klucel (hydroxypropylcellulose) (HPC)): 96 % of control and 100 % of control | T/C (dose: 37.5 mg/kg/injection, schedule: Q01DX010 (ip), vehicle: saline): 100 % of control and 110 % of control | T/C (dose: 40.0 mg/kg/injection, schedule: Q01DX009 (ip), vehicle: Klucel (hydroxypropylcellulose) (HPC)): 100 % of control | T/C (dose: 40.0 mg/kg/injection, schedule: Q01DX009 (ip), vehicle: saline with Tween-80): 113 % of control | T/C (dose: 59.0 mg/kg/injection, schedule: Q01DX009 (ip), vehicle: saline with Tween-80): 107 % of control | T/C (dose: 75.0 mg/kg/injection, schedule: Q01DX010 (ip), vehicle: saline): 100 % of control and 115 % of control | T/C (dose: 80.0 mg/kg/injection, schedule: Q01DX009 (ip), vehicle: Klucel (hydroxypropylcellulose) (HPC)): 90 % of control | T/C (dose: 80.0 mg/kg/injection, schedule: Q01DX009 (ip), vehicle: saline with Tween-80): 99 % of control | T/C (dose: 89.0 mg/kg/injection, schedule: Q01DX009 (ip), vehicle: saline with Tween-80): 107 % of control | T/C (dose: 133.0 mg/kg/injection, schedule: Q01DX009 (ip), vehicle: saline with Tween-80): 115 % of control | T/C (dose: 150.0 mg/kg/injection, schedule: Q01DX010 (ip), vehicle: saline): 100 % of control and 104 % of control | T/C (dose: 160.0 mg/kg/injection, schedule: Q01DX009 (ip), vehicle: Klucel (hydroxypropylcellulose) (HPC)): 104 % of control | T/C [5]: 107 % of control

O=P(N1CCCCCC1)(N1CC1)N1CC1
T/C (dose: 5.0 mg/kg/injection, schedule: Q01DX009 (ip), vehicle: saline): 168 % of control | T/C (dose: 6.25 mg/kg/injection, schedule: Q04DX003 (ip), vehicle: saline): 95 % of control | T/C (dose: 7.0 mg/kg/injection, schedule: Q04DX003 (ip), vehicle: saline): 112 % of control | T/C (dose: 8.0 mg/kg/injection, schedule: Q01DX009 (ip), vehicle: saline): 157 % of control and 222 % of control | T/C (dose: 11.0 mg/kg/injection, schedule: Q04DX003 (ip), vehicle: saline): 150 % of control | T/C [1]: 180 % of control | T/C (dose: 17.0 mg/kg/injection, schedule: Q04DX003 (ip), vehicle: saline): 166 % of control and 181 % of control | T/C [2]: 218 % of control [middle of 4 runs] | T/C (dose: 50.0 mg/kg/injection, schedule: Q04DX003 (ip), vehicle: saline): 162 % of control

CCCCCCOCCN1CCN(CCCN2c3ccccc3Sc3ccc(C(F)(F)F)cc32)CC1
T/C (dose: 12.5 mg/kg/injection, schedule: Q04DX003 (ip), vehicle: saline with Tween-80): 121 % of control | T/C (dose: 25.0 mg/kg/injection, schedule: Q04DX003 (ip), vehicle: saline with Tween-80): 97 % of control and 112 % of control | T/C [10]: 94 % of control

c1ccc(Cn2ccnc2)cc1
T/C (dose: 3.12 mg/kg/injection, schedule: Q01DX009 (ip), vehicle: water): 87 % of control | T/C (dose: 6.25 mg/kg/injection, schedule: Q01DX009 (ip), vehicle: water): 92 % of control | T/C (dose: 12.5 mg/kg/injection, schedule: Q01DX009 (ip), vehicle: water): 87 % of control | T/C (dose: 25.0 mg/kg/injection, schedule: Q01DX009 (ip), vehicle: water): 99 % of control | T/C (dose: 50.0 mg/kg/injection, schedule: Q01DX009 (ip), vehicle: water): 100 % of control | T/C (dose: 100.0 mg/kg/injection, schedule: Q01DX009 (ip), vehicle: water): 86 % of control

O=C(Nc1cccc2c1C(=O)c1cccc(NC(=O)c3ccc(C(=O)Nc4cccc5c4C(=O)c4cccc(NC(=O)c6ccccc6)c4C5=O)cc3)c1C2=O)c1ccccc1
T/C (dose: 6.25 mg/kg/injection, schedule: Q01DX009 (ip), vehicle: saline with Tween-80): 92 % of control | T/C [11]: 107 % of control | T/C [12]: 111 % of control

COC(=O)C1=C(C)NC(C)=C(C(=O)OC)C(N2C(=O)CCC2=O)C1 (stereo not drawn)
T/C [11]: 97 % of control | T/C [12]: 94 % of control | T/C [13]: 95 % of control and 123 % of control | T/C [3]: 94 % of control and 107 % of control | T/C [5]: 107 % of control

O=C1OC2(CCCCC2)Cc2oc3ccccc3c(=O)c21
T/C (dose: 50.0 mg/kg/injection, schedule: Q01DX005 (ip), vehicle: Klucel (hydroxypropylcellulose) (HPC)): 87 % of control | T/C (dose: 200.0 mg/kg/injection, schedule: Q01DX005 (ip), vehicle: Klucel (hydroxypropylcellulose) (HPC)): 92 % of control

Clc1ccc(COC(Cn2ccnc2)c2ccc(Cl)cc2Cl)c(Cl)c1 (stereo not drawn)
T/C (dose: 18.7 mg/kg/injection, schedule: Q01DX009 (ip), vehicle: saline with Tween-80): 118 % of control | T/C (dose: 75.0 mg/kg/injection, schedule: Q01DX009 (ip), vehicle: saline with Tween-80): 118 % of control | T/C [5]: 108 % of control | T/C [7]: 108 % of control

Cc1cccc2c1C(=O)OC2(C)c1cccc2ccccc12 (stereo not drawn)
T/C [10]: 99 % of control | T/C [4]: 96 % of control | T/C [6]: 118 % of control | T/C [8]: 95 % of control

CCN(CC)C(=O)c1cccc(COc2ccc(N3C(N)=NC(N)=NC3(C)C)cc2Cl)c1
T/C (dose: 16.5 mg/kg/injection, schedule: Q01DX009 (ip), vehicle: saline): 110 % of control | T/C (dose: 25.0 mg/kg/injection, schedule: Q01DX009 (ip), vehicle: saline): 120 % of control | T/C (dose: 37.5 mg/kg/injection, schedule: Q01DX009 (ip), vehicle: saline): 120 % of control

COc1ccc(OC)c(NC=O)c1
T/C [12]: 97 % of control | T/C [3]: 97 % of control

O=c1[nH]n(-c2ccccc2)c(=O)cc1Cl
T/C [13]: 95 % of control | T/C [3]: 87 % of control | T/C [5]: 90 % of control

From PubChem BioAssay AID328 (DTP/NCI, 2004)
